Laboratory results as given in PMC2631127 (Acta Crystallographica Section D: Biological Crystallography, 2008).

Assays:
[1] = target: human homolog of mouse Rieske-type ferredoxin (HRF) (Homo sapiens, UniProt Q8TAC1); assay: optical absorption spectrum of purified protein; assay type: binding; details: bound as purified
[2] = target: T4moF, bacterial oxidoreductase (Ectopseudomonas mendocina, UniProt Q03304); assay: reduction of MRF followed at […] nm, anaerobic; assay type: biochemical; details: electron acceptor MRF; 4 nM T4moF; 1 mM NADH
Chain of T4moF, bacterial oxidoreductase (Q03304 whole entry): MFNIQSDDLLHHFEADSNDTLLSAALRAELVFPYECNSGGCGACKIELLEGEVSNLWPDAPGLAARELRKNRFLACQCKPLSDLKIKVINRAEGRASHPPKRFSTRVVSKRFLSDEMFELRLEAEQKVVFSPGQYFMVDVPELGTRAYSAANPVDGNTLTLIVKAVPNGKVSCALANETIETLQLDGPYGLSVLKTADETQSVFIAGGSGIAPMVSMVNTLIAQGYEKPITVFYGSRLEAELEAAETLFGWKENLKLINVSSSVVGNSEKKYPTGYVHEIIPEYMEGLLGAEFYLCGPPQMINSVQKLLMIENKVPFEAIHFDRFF

Chain of human homolog of mouse Rieske-type ferredoxin (HRF) (Q8TAC1 2-157 limits assumed): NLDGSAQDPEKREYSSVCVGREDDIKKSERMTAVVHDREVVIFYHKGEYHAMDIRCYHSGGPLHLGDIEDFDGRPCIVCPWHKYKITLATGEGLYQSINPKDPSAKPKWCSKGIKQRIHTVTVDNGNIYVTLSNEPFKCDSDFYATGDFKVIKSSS

`[S]1[Fe][S][Fe]1` [[2Fe–2S] cluster] was tested, and the “optical absorption spectrum of purified protein” value [1] was “Expression and purification of HRF following the same protocol resulted in similar purity and [2Fe–2S]”.
With `NC(=O)C1=CN([C@@H]2O[C@H](COP(=O)(O)OP(=O)(O)OC[C@H]3O[C@@H](n4cnc5c(N)ncnc54)[C@H](O)[C@@H]3O)[C@@H](O)[C@H]2O)C=CC1` [NADH] the “reduction of MRF followed at 460 nm, anaerobic” value [2] was “measured at multiple MRF concentrations in the presence of saturating NADH”.
